Test results taken from US20170045513A1, “METHODS OF DIAGNOSING CELIAC DISEASE USING IP-10” (ImmusanT, Inc., priority 2014, published 2017).
Non-standard residues stand in square brackets, D forms with d. pGlu = O=C1CC[C@@H](C(=O)O)N1

Assays:
Assay type in all cases: cell-based, human
gluten-reactive T cells [1] = assay: 96-well plate whole blood cytokine release, IFNγ by MAGPIX multiplex bead assay; settings: for Percent of maximal response to individual gluten peptides, IFNg: after oral gluten challenge; for IFNγ WB MAGPIX % max Mean: n = 8, blood after oral gluten challenge, individual peptides 5 μM (Peptide 2* of P14, Pepscan: 10 μg/mL (5.45 μM))
gluten-reactive T cells [2] = assay: Overnight IFNγ ELISpot assay with fresh PBMC; settings: for Percent of maximal response to individual gluten peptides, ELISp: after oral gluten challenge; for IFNγ ELISpot % max Mean: n = 5, blood after oral gluten challenge, individual peptides 5 μM (Peptide 2* of P14, Pepscan: 10 μg/mL (5.45 μM))
In short: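 Read-out is IFNγ spot-forming units per well, counted automatically after overnight culture of fresh PBMC (0.4 million/well) with single peptides (duplicate) or pools (triplicate). Donors: HLA-DQ2.5+ celiac patients on gluten-free diet, bled pre- and day 6 after 3-day oral gluten challenge.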

gluten-reactive T cells [3] = assay: Cytokine release assays taken together (IFNγ ELISpot, whole blood IFNγ and IP-10, in-tube IFNγ ELISA)
In short: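 Whole blood with peptides (P3 0.05-50 μg/mL; P13/P14 0.025-25 μM; […]), 24 h, 37 °C; plasma IFNγ/IP-10 by multiplex beads. Tube assay: 1 mL blood with P3 or CEF, 24 h, plasma IFNγ ELISA; elevated if >7.2 pg/mL above medium tube and SI >1.25. ELISpot overnight on fresh PBMC.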

Row | Substance | Percent of maximal response to individual gluten peptides, IFNg (gluten-reactive T cells [1]; Subject 2, Max. 116 pg/mL) | Percent of maximal response to individual gluten peptides, IFNg (gluten-reactive T cells [1]; Subject 3, Max. 799 pg/mL) | Percent of maximal response to individual gluten peptides, IFNg (gluten-reactive T cells [1]; Subject 4, Max. 136 pg/mL) | Percent of maximal response to individual gluten peptides, IFNg (gluten-reactive T cells [1]; Subject 6, Max. 72 pg/mL) | Percent of maximal response to individual gluten peptides, IFNg (gluten-reactive T cells [1]; Subject 7, Max. 17 pg/mL) | Percent of maximal response to individual gluten peptides, IFNg (gluten-reactive T cells [1]; Subject 8, Max. 47 pg/mL) | Percent of maximal response to individual gluten peptides, IFNg (gluten-reactive T cells [1]; Subject 9, Max. 67 pg/mL) | Percent of maximal response to individual gluten peptides, IFNg (gluten-reactive T cells [1]; Subject 10, Max. 229 pg/mL) | IFNγ WB MAGPIX % max Mean (gluten-reactive T cells [1]) [% max] | Percent of maximal response to individual gluten peptides, ELISp (gluten-reactive T cells [2]; Subject 3, Max. 18 SFU) | Percent of maximal response to individual gluten peptides, ELISp (gluten-reactive T cells [2]; Subject 4, Max. 36 SFU) | Percent of maximal response to individual gluten peptides, ELISp (gluten-reactive T cells [2]; Subject 6, Max. 16 SFU) | Percent of maximal response to individual gluten peptides, ELISp (gluten-reactive T cells [2]; Subject 8, Max. 17 SFU) | Percent of maximal response to individual gluten peptides, ELISp (gluten-reactive T cells [2]; Subject 10, Max. 11 SFU) | IFNγ ELISpot % max Mean (gluten-reactive T cells [2]) [% max] | activity relative to Peptide 14 in the cytokine release assays (gluten-reactive T cells [3]; blood collected after oral gluten challenge) | cytokine release / immunogenicity of individual peptide (gluten-reactive T cells [3]; HLA-DQ2.5+ celiac disease subjects after gluten challenge)
1 | (pE)QPYPQPELPYPQPQ-amide ([pGlu]QPYPQPELPYPQPQ-NH2; SMILES CC(C)C[C@H](NC(=O)[C@H](CCC(=O)O)NC(=O)[C@@H]1CCCN1C(=O)[C@H](CCC(N)=O)NC(=O)[C@@H]1CCCN1C(=O)[C@H](Cc1ccc(O)cc1)NC(=O)[C@@H]1CCCN1C(=O)[C@H](CCC(N)=O)NC(=O)[C@@H]1CCC(=O)N1)C(=O)N1CCC[C@H]1C(=O)N[C@@H](Cc1ccc(O)cc1)C(=O)N1CCC[C@H]1C(=O)N[C@@H](CCC(N)=O)C(=O)N1CCC[C@H]1C(=O)N[C@@H](CCC(N)=O)C(N)=O) [Peptide 15] | 46 % of max | 5 % of max | 24 % of max | 5 % of max | 6 % of max | 4 % of max | 100 % of max | 7 % of max | 25 | 11 % of max | 17 % of max | 31 % of max | 6 % of max | 0 % of max | 13 | no more than two-thirds as active as Peptide 14 | 
2 | (pE)SGEGSFQPSQENPQ-amide ([pGlu]SGEGSFQPSQENPQ-NH2; SMILES NC(=O)CC[C@H](NC(=O)[C@@H]1CCCN1C(=O)[C@H](CC(N)=O)NC(=O)[C@H](CCC(=O)O)NC(=O)[C@H](CCC(N)=O)NC(=O)[C@H](CO)NC(=O)[C@@H]1CCCN1C(=O)[C@H](CCC(N)=O)NC(=O)[C@H](Cc1ccccc1)NC(=O)[C@H](CO)NC(=O)CNC(=O)[C@H](CCC(=O)O)NC(=O)CNC(=O)[C@H](CO)NC(=O)[C@@H]1CCC(=O)N1)C(N)=O) [Peptide 9] | 19 % of max | 0 % of max | 0 % of max | 0 % of max | 0 % of max | 0 % of max | 0 % of max | 0 % of max | 2 | 0 % of max | 0 % of max | 0 % of max | 6 % of max | 0 % of max | 1 |  | weak or not distinguishable from medium alone
